Experimental data from US6069156A, “Indole derivatives as cGMP-PDE inhibitors” (Fujisawa Pharmaceutical Co., Ltd., priority 1995, dated 2000).
Read-outs that look alike come from different tables or passages of the source.

Experiments:
[1] = target: T1, cGMP-PDE (Homo sapiens, UniProt O76074); experiment: cGMP-phosphodiesterase (PDE) Assay (human platelets); assay type: biochemical
T1 construct: cGMP-PDE was separated from other isozymes in human platelets; from tissue; host or cells: human platelets
Description: cGMP-phosphodiesterase (PDE) Assay
cGMP-PDE was separated from other isozymes in human platelets by a modification of the method of Thompson et. al. (Cyclic Nucleotide Phosphodiesterase (PDE), in Methods of Enzymatic analysis, Vol 4, p127-234, 1984). In enzyme inhibition assays, the test compounds were dissolved in 10% DMSO and then diluted with assay buffer (50 mM Tris-HCl, pH 8.0, 0.1 mM dithiothreitol, 2 mM EGTA and 10 u/ml snake venom), at final concentrations ranging from 10^-10 to 10^-6 M. Assays were performed at 0.1 μM substrate ([^3 H]-cGMP) concentration, at 30° C. for 10 minutes using enzyme dilutions which gave 10-20% hydrolysis of substrate. Each assay was initiated by addition of substrate and terminated by addition of anion exchange resin (Dowex 1-X8, 25 μg/mg) followed by centrifugation for 10 minutes (3000 rpm, at 4° C.). Radioactivity of supernatant (^3 H-GMP) was assayed by liquid scintillation counting.

[2] = tested on: aorta (spirally cut strips); experiment: Smooth Muscle Relaxant: noradrenaline-contracted rat aorta strips; parameters: species or system male Wistar rats; settings: contraction by noradrenaline 1 μM, 37° C.
Description: The aorta were carefully removed from male Wistar rats, cleaned of fat and extraneous tissue. Spirally cut strips of the aorta were placed in a 25 ml organ bath containing Tyrode solution of the following composition (mM); NaCl, 137; KCl, 2.7; CaCl2, 1.8; NaH2 PO4, 0.4; NaHCO3, 12.0; MgSO4, 1.1; glucose, 5.6. The bath was maintained at 37° C. and bubbled with 95% O2 and 5% CO2. The spirally cut strip was stretched to a resting force of 1.0 g, and the isometric contraction was recorded via a force development transducer on an ink writing recorder. Tissues were equilibrated for 60 minutes before contraction was induced by noradrenaline (NA, 1 μM). The test compounds were cumulatively added to organ bath in increasing concentrations ranging from 10^-8 to 10^-5 M, after maximum stable constriction to NA had been achieved.

[3] = tested on: Vascular smooth muscle cells (vSMCs); experiment: vSMC Proliferation ([3H]-thymidine, PDGF-stimulated); assay type: cell-based, male Wistar rats; settings: Rattus norvegicus, PDGF 10 ng/ml stimulation
Description: Vascular smooth muscle cells (vSMCs) were prepared from explants of the thoracic aorta of 10 week old male Wistar rats by a modification of the method of Ross (J. Cell Biol., 50: 172, 1971). They were cultured in DMEM containing 10% fetal calf serum, 1% penicillin G and 1% streptomycin at 37° C. in a 95% air, 5% CO2 humidified atmosphere. vSMCs were seeded in 24 well plates and cultured in the presence of 10% fetal calf serum for 3 days. Cell growth then was arrested by transfer to serum free DMEA. After 24 hours, each test compound or vehicle was added to medium for 1 hour, and then cells were stimulated by PDGF (10 ng/ml). After 24 hours of additional incubation, [^3 H]-thymidine (1 μCi/ml) was added during the final 4 hours of incubation time, and trichloracetic acid insoluble radioactivity was assayed by liquid scintillation counting.

[4] = tested on: Coronary vasospasm induced with vasopressin; experiment: Vasopressin Induced-vasospasm Model (ST segment depression); assay type: in vivo, Male Donryu rats; settings: 10 mg/kg orally 30 minutes before vasopressin 0.2 iu/kg
Description: Vasopressin Induced-vasospasm Model
Male Donryu rats, weighing 160-200 g, were anesthetized intraperitoneally with sodium pentobarbital (60 mg/kg) 15 minutes before intravenous administration of vasopressin, and the femoral vein was cannulated with polyethylene tubing (diameter 0.8 mm). Coronary vasospasm was induced with vasopressin (0.2 iu/kg) dissolved in saline through the cannula in the femoral vein. The each test compound (10 mg/kg) was administered orally 30 minutes before the administration of vasopressin. The standard limb lead II of the electrocardiogram was recorded with an electrocardiograph. The depression of ST segment was measured as the difference in the amplitudes of the ST segment after and just before the administration of vasopressin. The amplitudes of ST segment were measured at intervals of 0.5 minutes for 5 minutes after administration of vasopressin.

[5] = tested on: Cyclosporin nephritis; experiment: Cyclosporin Nephritis Model; assay type: in vivo, Spontaneously hypertensive rats; settings: 3.2 mg/kg orally twice a day for two weeks; cyclosporin 50 mg/kg daily
Description: Cyclosporin Nephritis Model
Spontaneously hypertensive rats weighing 250-300 g were used. Cyclosporin dissolved in olive-oil containing 5% ethanol was given orally to the animals in a daily dose 50 mg/kg for 2 weeks. After the last dosing of cyclosporin, 24-hours urine was collected for urinalysis. Blood was withdrawn from the abdominal aorta under ether anesthesia 24 hours after the last dosing of cyclosporin, and plasma was separated by centrifugation for biochemical analysis. The animal were bled to death and kidneys were removed for histopathological examination.
The each test compound (3.2 mg/kg) was dissolved in PEG 400 and given orally by the volume of 1 ml/kg twice a day for two weeks.
(§1) Biochemistry and urinalysis: Urine volume, plasma creatinine, urine creatinine, blood urea nitrogen, plasma sodium, urine sodium, plasma potassium and urine potassium, were measured with an autoanalyzer (TBA-20R Toshiba, OM-6020 Daiichi Kagaku).
Histopathology: The kidneys were fixed in phosphate-buffered 10% formalin and its paraffin specimens were prepared and these sections were stained with hematoxylin.

[6] = tested on: FK506-induced nephritis; experiment: Prevention of Experimental FK506-induced Nephritis by Cyclic Nucleotide Regulating Drugs (b); assay type: in vivo, male Sprague-Dawley rats; settings: 20 mg/kg intramuscularly 30 minutes before FK506 10 mg/kg/day, 14 days
Description: (b) Prevention of Experimental FK506-induced Nephritis by Cyclic Nucleotide Regulating Drugs
FK506 was administered orally to male Sprague-Dawley rats (body weights; 292-329 g) fed with low sodium diet (0.05% Sodium) in a daily dose of 10 mg/kg/day for 14 days. FK506 was provided in a solid dispersion formulation and dissolved in distilled water to a final concentration of 2 mg/ml. Papaverine was dissolved in saline to 5 mg/ml. Dipyridamole (i.v. formulation; 5 mg/ml) was purchased from Dainippon Pharmaceutical Co., Ltd. Papaverine (20 mg/kg) or dipyridamole (20 mg/kg) was administered intramuscularly 30 minutes before FK506 dosing. After the final dosing of FK506, 24-hours urine was collected for urinalysis. Blood was withdrawn from the abdominal aorta under ether anesthesia 24 hours after final dosing of FK506, and plasma was separated for biochemical analysis and plasma renin activity measurements. The kidney was removed from each animal and was fixed with in 10% formalin solution for histological analysis.

[7] = tested on: Genital Grooming and Penile Erection; experiment: Effect on Genital Grooming and Penile Erection in Male Mice; assay type: in vivo, male ICR mice; settings: oral; observed for one hour; n=10
Description: (d) Effect of Tested Compound on Genital Grooming and Penile Erection in Male Mice
Eight weeks old male ICR mice were housed under standard conditions of temperature, lighting and water supply before the experiment.
The test compound was dissolved in PEG400. After oral administration of the test compound, each mouse was transferred to an individual cage.

[8] = Toxicity by repetitive oral administration; assay type: in vivo, SD rat; settings: 32 mg/kg once a day orally, 14 consecutive days
[9] = tested on: FK506 nephritis; experiment: FK506 Nephritis Model (a); assay type: in vivo, Spontaneously hypertensive rats; settings: orally twice a day for two weeks; FK506 18 mg/kg daily for 1 week
Description: (a) Spontaneously hypertensive rats weighing 250-300 g were used. FK506 dissolved in olive-oil containing 5% ethanol was given orally to the animals in a daily dose 18 mg/kg for 1 week. After the last dosing of FK506, 24-hours urine was collected for urinalysis. Blood was withdrawn from the abdominal aorta under ether anesthesia 24 hours after the last dosing of FK506, and plasma was separated by centrifugation for biochemical analysis.
The each test compound was dissolved in PEG 400 and given orally by the volume of 1 ml/kg twice a day for two weeks.
as §1

[10] = 0.1 μM [3H]-cGMP, 30° C., 10 minutes, read-out: IC50

Structure (SMILES): CCCc1c(C(=O)C(C)C)c2ccc(C(N)=O)cc2n1Cc1ccccc1C [37-(4), 3-Isobutyryl-1-(2-methylbenzyl)-2-propylindole-6-carboxamide]
- IC50 [1]: < 100 nM
- IC50 [2]: < 100 nM

Structure (SMILES): CCCc1c(C(=O)C(C)C)c2ccc(C(N)=O)cc2n1Cc1ccccc1[N+](=O)[O-] [37-(7), 3-Isobutyryl-1-(2-nitrobenzyl)-2-propylindole-6-carboxamide]
- IC50 [1]: < 100 nM
- IC50 [2]: < 100 nM

Structure (SMILES): CCCc1c(C(=O)C2CC2)c2ccc(C(N)=O)cc2n1Cc1cc2c(cc1Cl)OCO2 [73-(33), 1-(6-Chloro-3,4-methylenedioxybenzyl)-3-cyclopropanecarbonyl-2-propylindole-6-carboxamide]
- IC50 [1]: < 100 nM
- IC50 [2]: < 100 nM

Structure (SMILES): CCCc1c(C(C)=O)c2ccc(C(N)=O)cc2n1Cc1ccccc1Cl [Example 3, 3-acetyl-1-(2-chlorobenzyl)-2-propylindole-6-carboxamide]
- IC50 [1]: < 100 nM
- IC50 [3]: < 100 nM
- inhibiting activity (depression of ST segment) [4]: more than 50%
- recovery in a measure of blood urea nitrogen [5]: more than 50%
- recovery in a measure of creatinine clearance (ml/kg/min) [5]: more than 40%

Structure (SMILES): COc1ccc(Cc2nccc3cc(OC)c(OC)cc23)cc1OC [Papaverine]
- recovery in a measure of blood urea nitrogen [6]: more than 50%
- recovery in a serum creatinine [6]: more than 50%
- renofunction of FK506 dosed rats [6]: significantly improved renofunction

Structure (SMILES): CC(C)Cc1c(C(=O)C(C)C)c2ccc(C(N)=O)cc2n1Cc1ccccc1Cl [Example 12, 1-(2-Chlorobenzyl)-2-isobutyl-3-isobutyrylindole-6-carboxamide]
- IC50 [1]: < 100 nM
- IC50 [2]: < 100 nM
- inhibiting activity (depression of ST segment) [4]: more than 50%

Structure (SMILES): CCCc1c(C(=O)C2CCCC2)c2ccc(C(N)=O)cc2n1Cc1ccccc1Cl [73-(36), 1-(2-Chlorobenzyl)-3-cyclopentanecarbonyl-2-propylindole-6-carboxamide]
- IC50 [1]: < 100 nM
- IC50 [2]: < 100 nM

Structure (SMILES): CCc1c(C(=O)C(C)C)c2ccc(C#N)cc2n1Cc1ccccc1Cl [Example 43, 1-(2-Chlorobenzyl)-2-ethyl-3-isobutyrylindole-6-carbonitrile]
- IC50 [1]: < 100 nM
- IC50 [2]: < 100 nM
- inhibiting activity (depression of ST segment) [4]: more than 50%

Structure (SMILES): CCCc1c(C(=O)COC)c2ccc(C(N)=O)cc2n1Cc1cc2c(cc1Cl)OCO2 [Example 27-(8), 1-(6-Chloro-3,4-methylenedioxybenzyl)-3-methoxyacetyl-2-propylindole-6-carboxamide]
- IC50 [1]: < 100 nM
- IC50 [2]: < 100 nM
- IC50 [3]: < 100 nM
- increase of the frequencies of genital grooming (average) [7]: 266%
- lengthening of the duration of penile erection (average) [7]: 171%
- death on repetitive oral administration [8]: the dead at dose of 32 mg/kg once a day for 14 consecutive days could not be observed

Structure (SMILES): CCCc1c([N+](=O)[O-])c2ccc(C(=O)OC)cc2n1Cc1ccccc1Cl [Example 72, methyl 1-(2-chlorobenzyl)-3-nitro-2-propylindole-6-carboxylate]
- IC50 [1, 10]: < 100 nM
- IC50 [2]: < 100 nM

Structure (SMILES): CCC(=O)c1c(CC)n(Cc2ccccc2Cl)c2cc(C#N)ccc12 [Example 42, 1-(2-chlorobenzyl)-2-ethyl-3-propionylindole-6-carbonitrile]
- IC50 [1]: < 100 nM
- inhibiting activity (depression of ST segment) [4]: more than 50%

Structure (SMILES): O=C(O)C1CCN(c2nc(NCc3ccc4c(c3)OCO4)c3cc(Cl)ccc3n2)CC1 [compound (VIII), reference compound]
- recovery in a measure of blood urea nitrogen [5]: more than 50%
- recovery in a measure of creatinine clearance (ml/kg/min) [5]: more than 40%
- recovery in a measure of creatinine clearance (ml/kg/min) [9]: more than 45%
- recovery in urinary sodium excretion [9]: more than 50%

Structure (SMILES): NC(=O)c1ccc2c3c(n(Cc4cc5c(cc4Cl)OCO5)c2c1)C(=O)CCC3 [75-(8), 9-(6-Chloro-3,4-methylenedioxybenzyl)-8-oxo-5,6,7,8-tetrahydrocarbazole-2-carboxamide]
- IC50 [1, 10]: < 100 nM
- IC50 [2]: < 100 nM

Structure (SMILES): CCc1c(C(=O)C(C)C)c2ccc(C(N)=O)cc2n1Cc1ccccc1Cl [37-(12), 1-(2-Chlorobenzyl)-2-ethyl-3-isobutyrylindole-6-carboxamide]
- IC50 [1]: < 100 nM
- IC50 [2]: < 100 nM
- inhibiting activity (depression of ST segment) [4]: more than 50%

Structure (SMILES): CCCc1c(C(=O)c2ccccc2)c2ccc(C(N)=O)cc2n1Cc1ccccc1Cl [38-(1), 3-Benzoyl-1-(2-chlorobenzyl)-2-propylindole-6-carboxamide]
- inhibiting activity (depression of ST segment) [4]: more than 50%

Structure (SMILES): CCCc1nn(C)c2c(=O)[nH]c(-c3cc(S(=O)(=O)N4CCN(C)CC4)ccc3OCC)nc12 [compound (IX), reference compound]
- recovery in a measure of blood urea nitrogen [5]: more than 50%
- recovery in a measure of creatinine clearance (ml/kg/min) [5]: more than 40%

Structure (SMILES): OCCN(CCO)c1nc(N2CCCCC2)c2nc(N(CCO)CCO)nc(N3CCCCC3)c2n1 [dipyridamole, Dipyridamole]
- recovery in a measure of blood urea nitrogen [6]: more than 50%
- recovery in a serum creatinine [6]: more than 50%
- renofunction of FK506 dosed rats [6]: significantly improved renofunction

Structure (SMILES): CCCc1c(C(=O)C(C)C)c2ccc(C(N)=O)cc2n1Cc1ccc(F)cc1Cl [37-(9), 1-(2-Chloro-4-fluorobenzyl)-3-isobutyryl-2-propylindole-6-carboxamide]
- IC50 [1]: < 100 nM
- IC50 [2]: < 100 nM
